Structures can show the parent of a compound that is named as a salt.
Target: MASP-2 CCP2-SP (Homo sapiens (Human), UniProt O00187)
Test: MASP-2 co-crystallization, X-ray crystallography and structure analysis (H-bonds, van der Waals contacts);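 on Ligand-pharmacophore element distance, pharmacophore element C2: distance from averaged pharmacophore element to bound ligand; missing value means element absent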;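 on Ligand-pharmacophore element distance, pharmacophore element C3: distance from averaged pharmacophore element to bound ligand; missing value means element absent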;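 on Ligand-pharmacophore element distance, pharmacophore element C4: distance from averaged pharmacophore element to bound ligand; missing value means element absent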;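 on Ligand-pharmacophore element distance, pharmacophore element C5: distance from averaged pharmacophore element to bound ligand; missing value means element absent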
Set-up: van der Waals contact distance, MASP-2 HIS 483 atom CD2 / van der Waals contact distance, MASP-2 HIS 483 atom NE2 / van der Waals contact distance, SER 654 C to compound atom / van der Waals contact distance, SER 654 O to compound atom / van der Waals contact distance, TRP 655 C to compound atom / van der Waals contact distance, MASP-2 GLY 528 atom CA / van der Waals contact distance TRP 655 atom CZ3 / van der Waals contact distance TRP 655 atom N / van der Waals contact distance TRP 655 atom CE3 / van der Waals contact distance GLY 656 atom C / van der Waals contact distance GLY 656 atom CA / van der Waals contact distance GLY 656 atom O / van der Waals contact distance, MASP-2 TYR 607 atom CD1 / van der Waals contact distance, MASP-2 PRO 606 atom O / d(C3,CA1) / d(CA1,N1)2 / d(H4,O1) / d(H4,O2) / d(O1,O2) / d(CA1,O2) / d(CA6,O1) / d(CA6,O2) / d(CA1,C5) / d(O2,H3) / d(N2,C2) / d(CA5,N2) / d(N2,C4) / d(N2,C6) / d(N2,CA3) / d(N2,O3) / d(O4,H2): unit not given beside the values
Conditions: for H-bond distance to MASP-2 GLY 656 atom N / H-bond distance to MASP-2 SER 628 atom O / H-bond distance to MASP-2 SER 654 atom O / H-bond distance to MASP-2 SER 657 atom O / H-bond distance to MASP-2 GLY 656 atom O: Table A1 (H-Bonds); for H-bond distance to MASP-2 GLY 656 atom N: GLY 656 N; for H-bond distance to MASP-2 SER 628 atom O: SER 628 O; for H-bond distance to MASP-2 SER 654 atom O: SER 654 O; for H-bond distance to MASP-2 SER 657 atom O: SER 657 O; for van der Waals contact distance GLY 656 atom C: MASP-2 GLY 656 C; for Ligand-pharmacophore element distance, pharmacophore element C2 / Ligand-pharmacophore element distance, pharmacophore element C3 / Ligand-pharmacophore element distance, pharmacophore element C4 / Ligand-pharmacophore element distance, pharmacophore element C5 / Ligand-pharmacophore element distance, pharmacophore element C6 / Ligand-pharmacophore element distance, pharmacophore element C7 / Ligand-pharmacophore element distance, pharmacophore element CA1 / Ligand-pharmacophore element distance, pharmacophore element CA2 / Ligand-pharmacophore element distance, pharmacophore element CA3 / Ligand-pharmacophore element distance, pharmacophore element CA4 / Ligand-pharmacophore element distance, pharmacophore element CA5 / Ligand-pharmacophore element distance, pharmacophore element CA6: Table A4-1; for H-bond distance to MASP-2 GLY 656 atom O: GLY 656 O
Method in brief: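 Inhibitor complexes were obtained by soaking crystals of E. coli-derived human MASP-2 CCP2-SP. Synchrotron diffraction at 1.0 wavelength, molecular replacement and partial refinement gave the models; one pose per ligand was chosen for contact analysis.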

[1] = Table A5-1 pharmacophore: distance between elements, S2/S1 region
[2] = Table A5-2 pharmacophore distance, S3/S4 region
[3] = Table A7-1, between pharmacophore elements of the bound compound
[4] = Table A8-6, nearest protein atom in cell to the left
[5] = Table A2 section before Table A2-8

MASP-2 CCP2-SP, sequence (O00187 445-686): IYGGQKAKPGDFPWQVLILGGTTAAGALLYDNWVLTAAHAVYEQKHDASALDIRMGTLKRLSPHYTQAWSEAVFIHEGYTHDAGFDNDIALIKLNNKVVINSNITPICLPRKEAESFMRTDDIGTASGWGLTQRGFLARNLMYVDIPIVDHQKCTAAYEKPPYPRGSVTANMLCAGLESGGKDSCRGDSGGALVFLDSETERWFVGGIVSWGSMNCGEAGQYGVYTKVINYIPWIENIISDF
MASP-2 CCP2-SP, sequence (O00187 364-432 partner): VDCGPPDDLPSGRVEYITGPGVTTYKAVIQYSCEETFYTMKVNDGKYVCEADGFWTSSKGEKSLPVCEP

`C[C@H](NC(=O)C1C[C@@H](c2ccccc2)CCN1)C(=O)NCc1ccc(C(=N)N)cc1` (stereo in doubt) [compound 1063] was tested, and the “H-bond distance to MASP-2 GLY 656 atom N” value was 3.25, the “H-bond distance to MASP-2 SER 628 atom O” value was 2.93 and the “H-bond distance to MASP-2 SER 654 atom O” value was 2.94. The “H-bond distance to MASP-2 SER 657 atom O” value was 2.83, the “van der Waals contact distance, MASP-2 PHE 529 atom CD1” value (Table A2-3) was 3.71 and the “van der Waals contact distance, MASP-2 amino acid atom to compound atom” value (Table A2-5: TYR 607 (CE1, CE2, OH), PRO 608 (CD, CG), SER 611 (CA)) was 3.85. The “van der Waals contact distance GLY 656 atom C” value (Table A2-13) was 3.36, the “van der Waals contact distance TRP 655 atom O” value (Table A2-13, MASP-2 TRP 655 O) was 3.84 and the “van der Waals contact distance SER 657 atom C” value (Table A2-14, MASP-2 SER 657 C, columns c12-c13 (inferred)) was 3.75. The “Ligand-pharmacophore element distance, pharmacophore element C2” value was 0.48, the “Ligand-pharmacophore element distance, pharmacophore element C3” value was 0 and the “Ligand-pharmacophore element distance, pharmacophore element C4” value was 0. The “Ligand-pharmacophore element distance, pharmacophore element C5” value was 0, the “Ligand-pharmacophore element distance, pharmacophore element C6” value was 0 and the “Ligand-pharmacophore element distance, pharmacophore element C7” value was 0. For the same compound, the “Ligand-pharmacophore element distance, pharmacophore element CA1” value was 0.3, the “Ligand-pharmacophore element distance, pharmacophore element CA2” value was 0.85 and the “Ligand-pharmacophore element distance, pharmacophore element CA3” value was 0. For the same compound, the “Ligand-pharmacophore element distance, pharmacophore element CA4” value was 0, the “Ligand-pharmacophore element distance, pharmacophore element CA5” value was 0 and the “Ligand-pharmacophore element distance, pharmacophore element CA6” value was 0. The “d(CA1,N1)” value [1] was 3.56, the “d(CA1,O1)” value [1] was 4.95 and the “d(CA1,O2)” value [1] was 3.58. For the same compound, the “d(H4,O1)” value [1] was 5.37, the “d(H4,O2)” value [1] was 3.82 and the “d(O1,O2)” value [1] was 3.31. For the same compound, the “d(N2,C2)” value [2] was 1.38, the “d(N2,CA2)” value [2] was 5.62 and the “d(O2,H3)” value [2] was 4.92. For the same compound, the “d(O2,N2)” value [2] was 3.36, the “a(CA1, O1, O2)” value (Table A6-1 pharmacophore angle) was 88.32 and the “a(O1, O2, H4)” value (Table A6-1 pharmacophore angle) was 142.43. For the same compound, the “A(N1, CA1, O1) a)” value (Table A6-1 pharmacophore angle, all compounds with protonatable center N1 except Methyl-amino-pyridine) was 167.99, the “a(O1, O2, H3)” value (Table A6-2 pharmacophore angle) was 157.64 and the “a(O1, O2, N2)” value (Table A6-2 pharmacophore angle) was 139.49. For the same compound, the “a(O2, N2, C2)” value (Table A6-2 pharmacophore angle) was 118.75, the “a(O2, N2, CA2)” value (Table A6-2 pharmacophore angle) was 154.05 and the “Pharmacophore torsion angle a(H4, O1, O2, H3)” value [3] was 54.13. The “Pharmacophore torsion angle a(H4, O1, O2, N2)” value [3] was 155.02, the “Pharmacophore torsion angle a(N1, CA1, O2, H4)” value [3] was −130.71 and the “Pharmacophore torsion angle a(O1, H4, O2, CA1)” value [3] was −74.94. The “Pharmacophore torsion angle a(O1, O2, N2, C2)” value [3] was 150.29, the “Pharmacophore protein distance to MET_658 (first MET_658 column)” value (Table A8-6, 6th residue column, nearest protein atom in cell to the left) was 1.74 and the “Pharmacophore protein distance to MET_658 (second MET_658 column)” value (Table A8-6, 9th residue column, nearest protein atom in cell to the left) was 2.75. For the same compound, the “Pharmacophore protein distance to GLY_528” value [4] was 3.37, the “Pharmacophore protein distance to PHE_529” value [4] was 3.00 and the “Pharmacophore protein distance to PRO_608” value [4] was 4.92. The “Pharmacophore protein distance to SER_611” value [4] was 3.00 and the “Pharmacophore protein distance to TRP_655” value (Table A8-6, pharmacophore elements C6, CA3, O3, H1, nearest protein atom in cell to the left) was 3.73.
With `C[C@H](NC(=O)[C@H]1C[C@H](Cc2ccccc2)CN1)C(=O)NCc1cc(Cl)ccc1-n1cnnn1` [compound 1371, (2R,4S)-4-Benzyl-N—((S)-1-((5-chloro-2-(1H-tetrazol-1-yl)benzyl)amino)-1-oxopropan-2-yl)pyrrolidine-2-carboxamide Hydrochloride] the “H-bond distance to MASP-2 GLY 656 atom N” value was 3.18, the “H-bond distance to MASP-2 GLY 656 atom O” value was 2.75 and the “H-bond distance to MASP-2 SER 654 atom O” value was 2.86. For the same compound, the “H-bond distance to MASP-2 SER 657 atom O” value was 2.96, the “van der Waals contact distance, MASP-2 HIS 483 atom CD2” value (Table A2-1) was 3.55 and the “van der Waals contact distance, MASP-2 HIS 483 atom NE2” value (Table A2-1) was 3.61. For the same compound, the “van der Waals contact distance, MASP-2 GLY 528 atom CA” value (Table A2-2) was 3.8, the “van der Waals contact distance, MASP-2 PHE 529 atom CD2” value (Table A2-3) was 3.86 and the “van der Waals contact distance, MASP-2 PHE 529 atom CE2” value (Table A2-3) was 3.89. For the same compound, the “van der Waals contact distance, MASP-2 amino acid atom to compound atom” value (Table A2-9 second part, ARG 630, AA atoms N, NE, NH1) was 3.44, the “van der Waals contact distance, SER 654 C to compound atom” value (Table A2-11) was 3.9 and the “van der Waals contact distance GLY 656 atom C” value (Table A2-13) was 3.84. The “van der Waals contact distance, MASP-2 amino acid atom to compound atom” value [5] was 3.76, the “Ligand-pharmacophore element distance, pharmacophore element C2” value was 0 and the “Ligand-pharmacophore element distance, pharmacophore element C3” value was 0. For the same compound, the “Ligand-pharmacophore element distance, pharmacophore element C4” value was 0, the “Ligand-pharmacophore element distance, pharmacophore element C5” value was 0.48 and the “Ligand-pharmacophore element distance, pharmacophore element C6” value was 0. The “Ligand-pharmacophore element distance, pharmacophore element C7” value was 0, the “Ligand-pharmacophore element distance, pharmacophore element CA1” value was 0.58 and the “Ligand-pharmacophore element distance, pharmacophore element CA2” value was 0.46. For the same compound, the “Ligand-pharmacophore element distance, pharmacophore element CA3” value was 0, the “Ligand-pharmacophore element distance, pharmacophore element CA4” value was 0 and the “Ligand-pharmacophore element distance, pharmacophore element CA5” value was 0. The “Ligand-pharmacophore element distance, pharmacophore element CA6” value was 0, the “d(CA1,O1)” value [1] was 3.46 and the “d(CA1,O2)” value [1] was 3.72. For the same compound, the “d(H4,O1)” value [1] was 3.13, the “d(H4,O2)” value [1] was 3.66 and the “d(O1,O2)” value [1] was 3.25. The “d(N2,CA2)” value [2] was 5.90, the “d(O2,H3)” value [2] was 1.96 and the “d(O2,N2)” value [2] was 2.79. For the same compound, the “a(CA1, O1, O2)” value (Table A6-1 pharmacophore angle) was 121.03, the “a(O1, O2, H4)” value (Table A6-1 pharmacophore angle) was 123.31 and the “a(O1, O2, H3)” value (Table A6-2 pharmacophore angle) was 136.64. The “a(O1, O2, N2)” value (Table A6-2 pharmacophore angle) was 146.93, the “a(O2, N2, CA2)” value (Table A6-2 pharmacophore angle) was 155.86 and the “Pharmacophore torsion angle a(H4, O1, O2, H3)” value [3] was −165.12. For the same compound, the “Pharmacophore torsion angle a(H4, O1, O2, N2)” value [3] was −174.11, the “Pharmacophore torsion angle a(O1, H4, O2, CA1)” value [3] was −68.15 and the “Pharmacophore torsion angle a(O1, O2, N2, CA2)” value (Table A7-2, between pharmacophore elements of the bound compound) was 136.54.
For `C[C@H](NC(=O)[C@@H](CCc1ccccc1)NCCCc1ccc(O)cc1)C(=O)NCc1ccc(C(=N)N)cc1` [compound 1145], the “H-bond distance to MASP-2 GLY 656 atom N” value was 3.09, the “H-bond distance to MASP-2 GLY 656 atom O” value was 2.58 and the “H-bond distance to MASP-2 SER 628 atom O” value was 2.84. The “H-bond distance to MASP-2 SER 654 atom O” value was 2.84, the “H-bond distance to MASP-2 SER 657 atom O” value was 2.81 and the “van der Waals contact distance, MASP-2 HIS 483 atom CD2” value (Table A2-1) was 3.75. The “van der Waals contact distance, MASP-2 PHE 529 atom CD1” value (Table A2-3) was 3.54, the “van der Waals contact distance, MASP-2 TYR 607 atom CD2” value (Table A2-4) was 3.89 and the “van der Waals contact distance, VAL 653 CG1 to compound atom” value (Table A2-11) was 3.9. The “van der Waals contact distance TRP 655 atom CE3” value (Table A2-13, MASP-2 TRP 655 CE3, compound atom in line below) was 3.49, the “van der Waals contact distance TRP 655 atom N” value (Table A2-13, MASP-2 TRP 655 N) was 3.79 and the “van der Waals contact distance, MASP-2 amino acid atom to compound atom” value [5] was 3.85.

Source: patent publication US12195427B2, “MASP-2 inhibitors and methods of use” (priority 2018, dated 2025)
